Patent US12570673B2, “c-Myc protein inhibitor, and preparation method therefor and use thereof” (SUZHOU KINTOR PHARMACEUTICALS, INC., priority 2019, dated 2026)
pIC50: −log10 of the molar value.

What follows are compounds tested on HL60 cells (assay: Anti-cancer activity test, MTT, HL60 cells). Details: Homo sapiens, HL-60, culturing for 72 hours.
Type: cell-based
Experimental: Cell culture medium: Roswell medium RPMI-1640 (+L-glutamine) was added with 10% fetal bovine serum, with 100 units penicillin and 100 μg streptomycin per ml.
Cell culture conditions: 5% CO2, 95% humidity, cultured at 37° C. constant temperature.
2. Cell Inoculation, Drugs Dosing and Culture.
Logarithmic growth phase HL-60, human chronic myeloid leukemia cells (K562), human esophageal squamous cell carcinoma cells (KYSE510), human large cell lung cancer cells (H460) were inoculated into 96-well cell culture plates, 2×10^4 cells per well. Different concentrations of active compounds (dissolved in dimethyl sulfoxide (DMSO) stock solution) were added, so that the final concentration of DMSO was 0.2%, and the control group was DMSO. Each group was repeated three times.
After culturing for 72 hours, 20 µL of thiazolyl blue (MTT) (5 mg/ml, ready for use, dissolved in 1×PBS for cell culture) was added to each well, and incubated at 37° C. for 3 hours.
The 96-well cell culture plates were centrifuged at 1000 rpm for 10 minutes. The supernatant was discarded; 200 μL of DMSO was added to each well and the plate was shaken for 5 minutes.
The absorbance of each well was detected at 570 nm wavelength with a microplate reader, and the IC50 of the compounds was calculated.

Row | SMILES | pIC50
1 | CC(C)C[C@H](NC(=O)[C@H](CC(=O)NC(c1ccccc1)(c1ccccc1)c1ccccc1)NC(=O)OCC1c2ccccc2-c2ccccc21)B1O[C@@H]2C[C@@H]3C[C@@H](C3(C)C)[C@]2(C)O1 [Compound A1] | > 7.00
2 | CC(C)C[C@H](NC(=O)[C@H](Cc1cn(C(=O)OC(C)(C)C)c2ccccc12)NC(=O)OCC1c2ccccc2-c2ccccc21)B1O[C@@H]2C[C@@H]3C[C@@H](C3(C)C)[C@]2(C)O1 [Compound A8] | > 7.00
3 | CC(C)C[C@H](NC(=O)[C@@H](CC(=O)NC(c1ccccc1)(c1ccccc1)c1ccccc1)NC(=O)OCC1c2ccccc2-c2ccccc21)B1O[C@@H]2C[C@@H]3C[C@@H](C3(C)C)[C@]2(C)O1 [Compound A9] | 6.30 to 7.00
4 | CC(C)C[C@H](NC(=O)[C@@H](NC(=O)OCC1c2ccccc2-c2ccccc21)[C@@H](C)O)B1O[C@@H]2C[C@@H]3C[C@@H](C3(C)C)[C@]2(C)O1 [Compound A11] | 6.30 to 7.00
5 | CC(C)C[C@H](NC(=O)[C@H](C)NC(=O)OCC1c2ccccc2-c2ccccc21)B1O[C@@H]2C[C@@H]3C[C@@H](C3(C)C)[C@]2(C)O1 [Compound A12] | > 7.00
6 | COC(=O)CC[C@H](NC(=O)OCC1c2ccccc2-c2ccccc21)C(=O)N[C@@H](CC(C)C)B1O[C@@H]2C[C@@H]3C[C@@H](C3(C)C)[C@]2(C)O1 [Compound A14] | > 7.00
7 | CC(C)C[C@H](NC(=O)[C@H](Cc1ccccc1)NC(=O)OCC1c2ccccc2-c2ccccc21)B1O[C@@H]2C[C@@H]3C[C@@H](C3(C)C)[C@]2(C)O1 [Compound A15] | > 7.00
8 | COC(=O)C[C@H](NC(=O)OCC1c2ccccc2-c2ccccc21)C(=O)N[C@@H](CC(C)C)B1O[C@@H]2C[C@@H]3C[C@@H](C3(C)C)[C@]2(C)O1 [Compound A16] | > 7.00
9 | CC(C)C[C@H](NC(=O)[C@H](CCc1ccccc1)NC(=O)OCC1c2ccccc2-c2ccccc21)B1O[C@@H]2C[C@@H]3C[C@@H](C3(C)C)[C@]2(C)O1 [Compound A17] | > 7.00
10 | CC(C)C[C@H](NC(=O)[C@H](Cc1c[nH]c2ccccc12)NC(=O)OCC1c2ccccc2-c2ccccc21)B1O[C@@H]2C[C@@H]3C[C@@H](C3(C)C)[C@]2(C)O1 [Compound A18] | > 7.00
11 | CC(C)C[C@H](NC(=O)[C@H](CC(=O)NC(c1ccccc1)(c1ccccc1)c1ccccc1)NC(=O)OC(C)(C)C)B1O[C@@H]2C[C@@H]3C[C@@H](C3(C)C)[C@]2(C)O1 [Compound A19] | 6.30 to 7.00
12 | CC(C)C[C@H](NC(=O)[C@H](CC(=O)NC(c1ccccc1)(c1ccccc1)c1ccccc1)NC(=O)OCc1ccccc1)B1O[C@@H]2C[C@@H]3C[C@@H](C3(C)C)[C@]2(C)O1 [Compound A20] | > 7.00
13 | CC(C)C[C@H](NC(=O)[C@H](Cc1c[nH]c2ccccc12)NC(=O)OCc1ccccc1)B1O[C@@H]2C[C@@H]3C[C@@H](C3(C)C)[C@]2(C)O1 [Compound A21] | > 7.00
14 | C[C@H](NC(=O)[C@H](CCCCNC(=O)OC(C)(C)C)NC(=O)OCC1c2ccccc2-c2ccccc21)B1O[C@@H]2C[C@@H]3C[C@@H](C3(C)C)[C@]2(C)O1 [Compound A23] | 6.30 to 7.00
15 | CC(C)C[C@H](NC(=O)[C@H](CC(C)C)NC(=O)CC1c2ccccc2-c2ccccc21)B1O[C@@H]2C[C@@H]3C[C@@H](C3(C)C)[C@]2(C)O1 [Compound A24] | > 7.00
16 | CC(C)C[C@H](NC(=O)[C@H](Cc1c[nH]c2ccccc12)NC(=O)CC12CC3CC(CC(C3)C1)C2)B1O[C@@H]2C[C@@H]3C[C@@H](C3(C)C)[C@]2(C)O1 [Compound A25] | > 7.00
17 | CC(C)C[C@H](NC(=O)[C@H](Cc1c[nH]c2ccccc12)NC(=O)C12CC3CC(CC(C3)C1)C2)B1O[C@@H]2C[C@@H]3C[C@@H](C3(C)C)[C@]2(C)O1 [Compound A26] | 5.70 to 6.30
18 | CC(C)C[C@H](NC(=O)[C@H](Cc1cn(C(=O)OC(C)(C)C)c2ccccc12)NC(=O)C1CC2C=CC1C2)B1O[C@@H]2C[C@@H]3C[C@@H](C3(C)C)[C@]2(C)O1 (some centres unmarked) [Compound A27] | > 7.00
19 | CC(C)C[C@H](NC(=O)[C@H](Cc1cn(C(=O)OC(C)(C)C)c2ccccc12)NC(=O)C12CC3CC(C1)C(=O)C(C3)C2)B1O[C@@H]2C[C@@H]3C[C@@H](C3(C)C)[C@]2(C)O1 [Compound A28] | 5.70 to 6.30
20 | CC(C)C[C@H](NC(=O)[C@H](Cc1c[nH]c2ccccc12)NC(=O)CC1CCCCC1)B1O[C@@H]2C[C@@H]3C[C@@H](C3(C)C)[C@]2(C)O1 [Compound A29] | > 7.00
21 | CC(C)C[C@H](NC(=O)[C@H](Cc1c[nH]c2ccccc12)NC(=O)CC1CCCC1)B1O[C@@H]2C[C@@H]3C[C@@H](C3(C)C)[C@]2(C)O1 [Compound A30] | > 7.00
22 | CC(C)C[C@H](NC(=O)[C@H](Cc1c[nH]c2ccccc12)NC(=O)CC1CC1)B1O[C@@H]2C[C@@H]3C[C@@H](C3(C)C)[C@]2(C)O1 [Compound A31] | > 7.00

Row | SMILES | pIC50
23 | CC(C)C[C@H](NC(=O)[C@H](Cc1c[nH]c2ccccc12)NS(=O)(=O)Cc1ccccc1)B1O[C@@H]2C[C@@H]3C[C@@H](C3(C)C)[C@]2(C)O1 [Compound A32] | > 7.00
24 | CC(C)C[C@H](NC(=O)[C@H](Cc1c[nH]c2ccccc12)NC(=O)c1ccncc1)B1O[C@@H]2C[C@@H]3C[C@@H](C3(C)C)[C@]2(C)O1 [Compound A33] | 5.70 to 6.30
25 | CC(C)C[C@H](NC(=O)[C@H](Cc1c[nH]c2ccccc12)NC(=O)c1nc2ccccc2s1)B1O[C@@H]2C[C@@H]3C[C@@H](C3(C)C)[C@]2(C)O1 [Compound A34] | 6.30 to 7.00
26 | CC(C)C[C@H](NC(=O)[C@H](Cc1c[nH]c2ccccc12)NC(=O)c1ccc2ncccc2c1)B1O[C@@H]2C[C@@H]3C[C@@H](C3(C)C)[C@]2(C)O1 [Compound A35] | 6.30 to 7.00
27 | CC(C)C[C@H](NC(=O)[C@H](Cc1c[nH]c2ccccc12)NC(=O)c1cnc2ccccc2c1)B1O[C@@H]2C[C@@H]3C[C@@H](C3(C)C)[C@]2(C)O1 [Compound A36] | > 7.00
28 | CC(C)C[C@H](NC(=O)[C@H](Cc1c[nH]c2ccccc12)NC(=O)c1ccc2ccccc2c1)B1O[C@@H]2C[C@@H]3C[C@@H](C3(C)C)[C@]2(C)O1 [Compound A37] | > 7.00
29 | CC(C)C[C@H](NC(=O)[C@H](CC(N)=O)NC(=O)CC1c2ccccc2-c2ccccc21)B1O[C@@H]2C[C@@H]3C[C@@H](C3(C)C)[C@]2(C)O1 [Compound A38] | 6.30 to 7.00
30 | CC(C)C[C@H](NC(=O)[C@H](CC(C)C)NC(=O)Cn1c2ccccc2c2ccncc21)B1O[C@@H]2C[C@@H]3C[C@@H](C3(C)C)[C@]2(C)O1 [Compound A39] | 5.70 to 6.30
31 | CC(C)C[C@H](NC(=O)[C@H](CC(C)C)NC(=O)Cn1c2ccc(Br)cc2c2cc(Br)ccc21)B1O[C@@H]2C[C@@H]3C[C@@H](C3(C)C)[C@]2(C)O1 [Compound A40] | 5.70 to 6.30
32 | CC(C)C[C@H](NC(=O)[C@H](CC(C)C)NC(=O)Cn1c2ccccc2c(=O)c2ccccc21)B1O[C@@H]2C[C@@H]3C[C@@H](C3(C)C)[C@]2(C)O1 [Compound A41] | 5.70 to 6.30
33 | CC(C)C[C@H](NC(=O)[C@H](CC(C)C)NC(=O)NC1c2ccccc2-c2ccccc21)B1O[C@@H]2C[C@@H]3C[C@@H](C3(C)C)[C@]2(C)O1 [Compound A42] | > 7.00
34 | CC(C)C[C@H](NC(=O)[C@H](CC(C)C)NC(=O)NCC1c2ccccc2-c2ccccc21)B1O[C@@H]2C[C@@H]3C[C@@H](C3(C)C)[C@]2(C)O1 [Compound A43] | > 7.00
35 | CC(C)C[C@H](NC(=O)[C@H](Cc1c[nH]c2ccccc12)NC(=O)NC1CCCC1)B1O[C@@H]2C[C@@H]3C[C@@H](C3(C)C)[C@]2(C)O1 [Compound A44] | > 7.00
36 | CC(C)C[C@H](NC(=O)[C@H](Cc1c[nH]c2ccccc12)NC(=O)OC1CCCC1)B1O[C@@H]2C[C@@H]3C[C@@H](C3(C)C)[C@]2(C)O1 [Compound A45] | > 7.00
37 | CC(C)C[C@H](NC(=O)[C@H](Cc1c[nH]c2ccccc12)NCc1ccccc1)B1O[C@@H]2C[C@@H]3C[C@@H](C3(C)C)[C@]2(C)O1 [Compound A46] | 6.30 to 7.00
38 | COC(=O)C[C@H](NC(=O)CC1c2ccccc2-c2ccccc21)C(=O)N[C@@H](CC(C)C)B1O[C@@H]2C[C@@H]3C[C@@H](C3(C)C)[C@]2(C)O1 [Compound A47] | > 7.00
39 | CNC(=O)C[C@H](NC(=O)CC1c2ccccc2-c2ccccc21)C(=O)N[C@@H](CC(C)C)B1O[C@@H]2C[C@@H]3C[C@@H](C3(C)C)[C@]2(C)O1 [Compound A48] | > 7.00
40 | CC(C)C[C@H](NC(=O)OCC1c2ccccc2-c2ccccc21)C(=O)N1CCC[C@H]1B1O[C@@H]2C[C@@H]3C[C@@H](C3(C)C)[C@]2(C)O1 [Compound A49] | 5.00 to 5.70
41 | CC(C)C[C@H](NC(=O)[C@H](CC(C)C)N(C)C(=O)OCC1c2ccccc2-c2ccccc21)B1O[C@@H]2C[C@@H]3C[C@@H](C3(C)C)[C@]2(C)O1 [Compound A50] | 5.00 to 5.70
42 | CC(C)C[C@H](NC(=O)CNC(=O)OCC1c2ccccc2-c2ccccc21)B1O[C@@H]2C[C@@H]3C[C@@H](C3(C)C)[C@]2(C)O1 [Compound A51] | > 7.00
43 | COc1ccc2cc(C(=O)N[C@@H](Cc3c[nH]c4ccccc34)C(=O)N[C@@H](CC(C)C)B3O[C@@H]4C[C@@H]5C[C@@H](C5(C)C)[C@]4(C)O3)ccc2c1 [Compound A52] | > 7.00
44 | CC(C)C[C@H](NC(=O)[C@H](C)NC(=O)c1ccc2c(c1)C(=O)N(C1CCC(=O)NC1=O)C2=O)B1O[C@@H]2C[C@@H]3C[C@@H](C3(C)C)[C@]2(C)O1 (some centres unmarked) [Compound A53] | 5.00 to 5.70
